The values below come from ChEMBL document CHEMBL1158356, “Synthesis, anti-tuberculosis activity and 3D-QSAR study of amino acid conjugates of 4-(adamantan-1-yl) group containing quinolines” (Eur J Med Chem, 2009).

By inhibition is commonly meant the change of the read-out against control, counted positive when it falls.

Assay [1] has as its system Mycobacterium tuberculosis. Put plainly: Antimycobacterial activity against isoniazid-resistant Mycobacterium tuberculosis H37Rv ATCC 27294 at 3.125 ug/ml. The class given is functional.
Assay [2] deals with Mycobacterium tuberculosis. Briefly: Antimycobacterial activity against isoniazid-resistant Mycobacterium tuberculosis H37Rv ATCC 27294 at 1 ug/ml. The class given is functional.

On to `N=C(N)NCCC[C@H](NC(=O)c1cc(C23CC4CC(CC(C4)C2)C3)c2ccccc2n1)C(=O)NN`, for which, in assay [1], at 3.125 µg/mL the inhibition was 99%. Besides, 1 µg/mL produced 60% inhibition in assay [2].
